Assay results: publication PMC11352945, “Anticancer Activity of Benzo[a]phenoxazine Compounds Promoting Lysosomal Dysfunction” (Cells, 2024)

Key:
MCF7 cells [1] = test: Annexin V/PI assay (flow cytometry), MCF7; type: cell-based, human; conditions: MCF7, 2 × IC50 and 4 × IC50, 48 h
Protocol: RKO and MCF7 cells were seeded in 12-well plates at a density of 1 × 10^5 cells/mL. After 24 h, the cells were treated with C9, A36, and A42 at 2 × IC50 and 4 × IC50 concentrations or 0.1% DMSO (vehicle). Untreated cells were used as controls. After 48 h, floating and adherent cells were collected. The cells were resuspended in […] of binding buffer and treated for 15 min in the dark with 5 μL of Annexin V-FITC (Detection Kit-ab14085) and 5 μL of Propidium Iodide (50 μg/mL). The samples were subjected to flow cytometry analysis, PI fluorescence was detected using the ECD-A channel, and Annexin V fluorescence was detected using the FITC-A channel.
One of the main goals of clinical oncology is the development of compounds and treatments capable of selectively eliminating cancer cells. In this sense, we next evaluated the capability of the compounds to induce cell death in both cell lines. For this, we performed a flow cytometry analysis using annexin V-FITC and propidium iodide PI double staining. The conjugation of these two probes allowed for the discrimination of viable (negative for both), early apoptotic (annexin + and PI−), late apoptotic (annexin+ and PI+), and necrotic (annexin− and PI+) cells. […] Both flouting and attached cells were harvested and double stained.

SW480 cells = test: Sulforhodamine B (SRB) cell viability assay, SW480; type: cell-based; conditions: Homo sapiens, CRC cell line, 48 h, read-out: IC50 (μM) ± SD, SW480
Protocol: The cells were allowed to adhere overnight, from 12 h to 18 h, and then treated with increasing concentrations of each compound, C9, A36, and A42 (0.125 μM, 0.25 μM, 0.5 μM, 1 μM, 2.5 μM, and 5 μM), in their respective culture mediums for 48 h. In addition to a negative control that consisted only of cells and growth medium, a negative control containing the highest concentration of the solvent in which the compound was dissolved (DMSO 0.1%) was also used. The SRB assay was performed according to Marques et al.. The IC50 values were obtained using GraphPad Prism version 8.2.1 through the application of a sigmoidal dose–response nonlinear regression, after logarithmic transformation. The selectivity index was determined by dividing the IC50 value of the non-neoplastic BJ-5ta cell line by the IC50 value of the cancer cell lines (IC50 BJ-5ta/IC50 cancer cell line); furthermore, for the CRC model, a second selectivity index was also determined using the non-neoplastic NCM460 cell line (IC50 NCM460/IC50 CRC cell line). According to the results of the selectivity index, the cell line with the highest selectivity value for each of the models, CRC and breast, was selected for subsequent characterization.
Three CRC-derived cell lines, SW480 (KRAS^G12V), HCT116 (KRAS^G13D), and RKO (BRAF^V600E), harboring somatic mutations on KRAS or BRAF, and two breast-cancer-derived cell lines, MDA-MB-231 (basal like) and MCF7 (luminal A subtype), together with two non-neoplastic cell lines, NCM460 (normal colon mucosal epithelial cell line) and BJ-5ta (normal foreskin fibroblast cell line), were used to study the activity and selectivity of the three new benzo[a]phenoxazine compounds, C9, A36, and A42. All cell lines were treated with a range of drug concentrations (0.125 μM, 0.25 μM, 0.5 μM, 1 μM, 2.5 μM, and 5 μM) for 48 h, and the effect on cell viability was assessed using a sulforhodamine B assay (SRB) (Figure 2). […] In addition, the selectivity index was determined using the BJ-5ta cell line as a reference, as well as the NCM460 cell line for the CRC model (Table 1).

MCF7 cells [2] = test: Wound healing assay, MCF7; type: cell-based, human; conditions: MCF7, IC50 and 2 × IC50, 12 h (controls approximately 12.5%)
Protocol: RKO and MCF7 cells were seeded in 12-well plates at densities of 5 × 10^5 cells/mL and 4.5 × 10^5 cells/mL, respectively. After 24 h, a wound was created by scraping the cell layer using a 1 mm pipette tip. The cells were treated with C9, A36, and A42 at IC50 and 2 × IC50 concentrations or 0.1% DMSO (vehicle). Untreated cells were used as controls. The wound regions were photographed at 0 and 12 h, and migration was assessed using the Image J software. The relative migration was calculated in relation to the untreated controls.

CCCNc1cc2oc3cc(=NCC)c(C)cc-3nc2c2ccccc12 [C9]
Cell death induction (Annexin V/PI) (MCF7 cells [1]): most powerful compounds
IC50 (SW480 cells): 0.78 ± 0.09 µM
Effect on cell migration (wound closure) (MCF7 cells [2]): more pronounced effect
